“Also recorded” adds a separate entry of the source.
Assays:
pZscan4-Emerald ESCs = assay: FACS analysis of Zscan4-Emerald ESCs (Emerald-GFP positive cells); format: cell-based, mouse
Experimental: (§1) All treatments including APH, HU, UV, ATRi, ATMi and Chk1i were added in to fresh ESC medium and the cells were kept in 37° C. and 3% 02 tension for overnight (16-17 hrs) unless mentioned in each particular result section. APH was used at various concentrations ranging from 0.3 uM to 6 uM that is mentioned in each experiment in order to induce mild to acute replication stress response. Similarly, HU was used at 0.1 mM-3 mM. ATMi (KU-55933) and ATRi (VE 822) were used at the concentration of 10 uM and 1 uM respectively. Moreover, Chk1i (UCN-01) at the concentration of 100 nM was used. UV radiation was performed at the dosage ranging from 2 to 10 J/m2. For induction of ETAA1-AAD expression, Dox was used at the concentration of 1 μg/mL for 48 hrs.
ESCs were fixed and permeabilized using Cytoperm/Cytofix kit (BD Biosciences), and subsequently stained for one hour at room temperature with Alexa Fluor® 647 anti-H2AX-Phosphorylated (Ser139) antibody (Biolegend) or P-CHK1-PE conjugated antibody (cell signaling 12268). Cells were washed and acquired on a FACS Calibur instrument or Attune NxT (Thermo Fisher Scientific). For Emerald-GFP acquisition, cells were trypsinized, collected and subsequently acquired without fixation. Cell cycle profiles were acquired after incubation with DAPI (4′,6-diamidino-2-phenylindole) overnight. For Caspase3 FACS analysis after fixation and permeabilization, Cleaved Caspase3 antibody were used for one hr at RT followed by washes and one hr incubation in donkey anti rabbit secondary antibody. […]

[1] = system: 2C-like genes (Zscan4, MuERV-L/MERVL, Dux) in ESCs (E14, R1); assay: qPCR for 2C-like specific genes in ESCs; format: cell-based, mouse; settings: ESC lines E14 and R1; time and dosage-dependent
Experimental: as §1
RNA was extracted using RNeasy mini kit (QIAGEN), quantified by NanoDrop spectrophotometer and cDNA was prepared from 2 μg total DNA-depleted RNA using SuperScript™ III reverse transcriptase kit (Invitrogen cat #18080-093) following manufacturer's instructions. qPCR assay performed based on standard protocol using 10× SsoFast™ EvaGreen® Supermix or later 1× LightCycler 480 SYBR Green I Master (Roche, 04707516001), 0.5 μM primer mix and 5 ng of cDNA. GAPDH was used as internal control to normalise the qPCR data following ΔΔCt method, 10 μM primer mix and a total amount of cDNA corresponding to 5 ng of starting RNA for each reaction.

Zscan4 = settings: previous work; cited from earlier work
mESC lines E14 and R1 = assay: Whole gene expression profiling (microarray) of mESC lines E14 and R1; format: cell-based, mouse; settings: APH plus inhibitor
Experimental: The quality of total RNA was first assessed using an Agilent Bioanalyzer 2100 (Agilent Technologies, Palo Alto, Calif.). Biotin-labeled cDNA targets were synthesized starting from 150 ng of total RNA. Double stranded cDNA synthesis and related cRNA was performed with GeneChip® WT Plus Kit (Affymetrix, Santa Clara, Calif.). With the same kit was synthesized the sense strand cDNA before to be fragmented and labeled. […] Each eukaryotic GeneChip® probe array contains probe sets for several B. subtilis genes that are absent in the samples analyzed (lys, phe, thr, and dap). This Poly-A RNA Control Kit contains in vitro synthesized, polyadenylated transcripts for these B. subtilis genes that are pre-mixed at staggered concentrations to allow GeneChip® probe array users to assess the overall success of the assay.
Hybridization was performed using the GeneAtlas™ Hybridization, Wash and Stain Kit. […] Targets were diluted in hybridization buffer at a concentration of 0.05 μg/ul, denatured at 99° C. for 5 minutes, incubated at 45° C. for 5 minutes and centrifuged at 5,000 rpm for 1 minute. The Array Strip is then moved to a hybridization tray, which contains the hybridization cocktails. A single Gene 2.1 PEG Array Strip is hybridized with four different biotin-labeled targets. Hybridizations were performed for 20 hours at 48° C. in the GeneAtlas™ Hybridization Station. The Array Strips were washed and stained in the GeneAtlas™ Personal Fluidics Station. At the end of this procedure the array strips were placed into the imaging tray, which contains the Array Holding buffer.
The array strips were imaged using the GeneAtlas™ Imaging Station. Affymetrix GeneAtlas™ Command Console software was used to acquire the Array Strip images and […].
The CAMERA gene set enrichment p-values were calculated using the limma package and the camera function 30.
In the GSVA based enrichment analysis, we used the MsigDB gene sets, and transformed the individual gene expression values into gene set expression values with the GSVA package 32. We calculated the gene set differential expression as in the gene level differential expression analysis, only skipping the RMA normalization step.

With NC(=O)NO [HU, hydroxyurea] the “number of Emerald-GFP positive (Em+) ESCs” value (pZscan4-Emerald ESCs; RS inducing agents, dose-dependent, qPCR and FACS) was “significant increase” and the “expression of Zscan4 and MuERV-L (QPCR and FACS)” value [1] was “significantly upregulated”.

For COC(=O)Nc1nc2ccc(C(=O)c3cccs3)cc2[nH]1 [nocodazole], the “Zscan4 expression upon G2/M arrest” value (Zscan4) is given as “not sufficient to trigger Zscan4 expression”.

With Cn1c(=O)c2c(ncn2C)n(C)c1=O [Caffeine] the “two placenta-related gene categories upon ATR inhibition” value (mESC lines E14 and R1) was “robustly suppressed”.

In the case of O=c1cc(-c2cccc3c2Sc2ccccc2S3)oc(N2CCOCC2)c1 [KU-55933], the “elevated expression of 2C-like specific genes (Zscan4, MERVL) upon APH and HU treatment” value (pZscan4-Emerald ESCs; inhibitor added under replication stress, flow cytometry and immunoblot, listed as ATM inhibitor) is reported as “could not alter” and the “number of Zscan4-Emerald positive cells” value (pZscan4-Emerald ESCs; normal culture condition, ATRi 1 uM, ATMi 10 uM) is reported as “did not change; also recorded: did not significantly reduce”.

Source: patent publication US20200131473A1, “METHOD OF GENERATING 2 CELL-LIKE STEM CELLS” (IFOM FONDAZIONE ISTITUTO FIRC DI ONCOLOGIA MOLECOLARE, priority 2017, published 2020)
